{
  "source": "paper PMC5933747",
  "about": "(PLoS ONE, 2018)",
  "key": {"human NaV1.2": {"molecular_target": "human NaV1.2 (Homo sapiens, UniProt Q99250)", "experiment": "Manual whole cell patch clamp, human NaV1.2", "format": "cell-based", "conditions": "20% channel inactivation, n = 2–4 cells per data point", "protocol": "(§1) Human NaV (hNaV) stably transfected cell lines in HEK293 or CHO backgrounds and cell culture methods were as previously described. hNaV1.1-hNaV1.7 cells were obtained from Eurofins Pharma Discovery Services (St. Charles, MO), and hNaV1.8 cells were generated in house. Whole cell patch clamp, PatchXpress, and IWQ electrophysiology voltage protocols as well as DRG neuron isolation were carried out as previously described. NaV1.7-NaV1.5 chimeras were generated and evaluated in BacMam transduced U2-OS cells on the IWQ platform as previously described.\n(§2) Fig 5 Selectivity of AM-8145 for human NaV channels in heterologous cells and native NaV currents in mDRG neurons. A. Concentration response curves for TTX-S channels including NaV1.1-NaV1.4, NaV1.6-NaV1.7 and mDRG TTX-S. IC50 values with fold-selectivity compared to NaV1.7 are listed in parenthesis. AM-8145 was 30- to 120-fold selective for NaV1.7 over NaV1.1-NaV1.4 and NaV1.6. B. Concentration response curves for TTX-R channels including NaV1.5, NaV1.8 and mDRG TTX-R. AM-8145 was over 1,700-fold selective for NaV1.7 over NaV1.5, NaV1.8 and mDRG TTX-R. Curves in A and B were derived from whole cell patch clamp experiments. Data are presented as mean ± SEM with n = 2–4 cells per data point. C. Representative current traces for TTX-S channels before (black) and after (red) 10 nM AM-8145 addition. […]"}, "[1]": {"system": "NaV1.7/NaV1.5 chimera DIS (first NaV1.7 voltage-sensor domain in NaV1.5 backbone)", "experiment": "IWQ chimera mapping, chimera DIS", "format": "cell-based, human", "conditions": "IWQ platform; BacMam transduced U2-OS cells", "protocol": "as §1\n(§3) Given the lack of robust bioactivity of AM-8145 on NaV1.5, we evaluated AM-8145 functional block on a battery of human NaV1.7-NaV1.5 chimeric channels, in which individual voltage sensor domains (transmembrane domains S1-S4 of domains I-IV) or the entire pore domain (transmembrane domains S5-S6 of domains I-IV) of NaV1.7 were inserted into the NaV1.5 backbone.\n(§4) Fig 4 AM-8145 maps to the second voltage sensor domain on hNaV1.7. Potency of AM-8145 inhibition of wild-type NaV1.7, wild-type NaV1.5, or chimeric NaV1.7/NaV1.5 channels (red illustrates NaV1.7 sequence and gray illustrates NaV1.5 sequence) on the IWQ platform (mean ± SEM). D = “Domain”; S = “Sensor” corresponding to transmembrane segments 1–4; P = “Pore” corresponding to transmembrane segments 5–6. […]"}, "human NaV1.5 [2]": {"molecular_target": "T1, human NaV1.5 (Homo sapiens, UniProt Q14524)", "T1 sequence (Q14524 whole entry)": "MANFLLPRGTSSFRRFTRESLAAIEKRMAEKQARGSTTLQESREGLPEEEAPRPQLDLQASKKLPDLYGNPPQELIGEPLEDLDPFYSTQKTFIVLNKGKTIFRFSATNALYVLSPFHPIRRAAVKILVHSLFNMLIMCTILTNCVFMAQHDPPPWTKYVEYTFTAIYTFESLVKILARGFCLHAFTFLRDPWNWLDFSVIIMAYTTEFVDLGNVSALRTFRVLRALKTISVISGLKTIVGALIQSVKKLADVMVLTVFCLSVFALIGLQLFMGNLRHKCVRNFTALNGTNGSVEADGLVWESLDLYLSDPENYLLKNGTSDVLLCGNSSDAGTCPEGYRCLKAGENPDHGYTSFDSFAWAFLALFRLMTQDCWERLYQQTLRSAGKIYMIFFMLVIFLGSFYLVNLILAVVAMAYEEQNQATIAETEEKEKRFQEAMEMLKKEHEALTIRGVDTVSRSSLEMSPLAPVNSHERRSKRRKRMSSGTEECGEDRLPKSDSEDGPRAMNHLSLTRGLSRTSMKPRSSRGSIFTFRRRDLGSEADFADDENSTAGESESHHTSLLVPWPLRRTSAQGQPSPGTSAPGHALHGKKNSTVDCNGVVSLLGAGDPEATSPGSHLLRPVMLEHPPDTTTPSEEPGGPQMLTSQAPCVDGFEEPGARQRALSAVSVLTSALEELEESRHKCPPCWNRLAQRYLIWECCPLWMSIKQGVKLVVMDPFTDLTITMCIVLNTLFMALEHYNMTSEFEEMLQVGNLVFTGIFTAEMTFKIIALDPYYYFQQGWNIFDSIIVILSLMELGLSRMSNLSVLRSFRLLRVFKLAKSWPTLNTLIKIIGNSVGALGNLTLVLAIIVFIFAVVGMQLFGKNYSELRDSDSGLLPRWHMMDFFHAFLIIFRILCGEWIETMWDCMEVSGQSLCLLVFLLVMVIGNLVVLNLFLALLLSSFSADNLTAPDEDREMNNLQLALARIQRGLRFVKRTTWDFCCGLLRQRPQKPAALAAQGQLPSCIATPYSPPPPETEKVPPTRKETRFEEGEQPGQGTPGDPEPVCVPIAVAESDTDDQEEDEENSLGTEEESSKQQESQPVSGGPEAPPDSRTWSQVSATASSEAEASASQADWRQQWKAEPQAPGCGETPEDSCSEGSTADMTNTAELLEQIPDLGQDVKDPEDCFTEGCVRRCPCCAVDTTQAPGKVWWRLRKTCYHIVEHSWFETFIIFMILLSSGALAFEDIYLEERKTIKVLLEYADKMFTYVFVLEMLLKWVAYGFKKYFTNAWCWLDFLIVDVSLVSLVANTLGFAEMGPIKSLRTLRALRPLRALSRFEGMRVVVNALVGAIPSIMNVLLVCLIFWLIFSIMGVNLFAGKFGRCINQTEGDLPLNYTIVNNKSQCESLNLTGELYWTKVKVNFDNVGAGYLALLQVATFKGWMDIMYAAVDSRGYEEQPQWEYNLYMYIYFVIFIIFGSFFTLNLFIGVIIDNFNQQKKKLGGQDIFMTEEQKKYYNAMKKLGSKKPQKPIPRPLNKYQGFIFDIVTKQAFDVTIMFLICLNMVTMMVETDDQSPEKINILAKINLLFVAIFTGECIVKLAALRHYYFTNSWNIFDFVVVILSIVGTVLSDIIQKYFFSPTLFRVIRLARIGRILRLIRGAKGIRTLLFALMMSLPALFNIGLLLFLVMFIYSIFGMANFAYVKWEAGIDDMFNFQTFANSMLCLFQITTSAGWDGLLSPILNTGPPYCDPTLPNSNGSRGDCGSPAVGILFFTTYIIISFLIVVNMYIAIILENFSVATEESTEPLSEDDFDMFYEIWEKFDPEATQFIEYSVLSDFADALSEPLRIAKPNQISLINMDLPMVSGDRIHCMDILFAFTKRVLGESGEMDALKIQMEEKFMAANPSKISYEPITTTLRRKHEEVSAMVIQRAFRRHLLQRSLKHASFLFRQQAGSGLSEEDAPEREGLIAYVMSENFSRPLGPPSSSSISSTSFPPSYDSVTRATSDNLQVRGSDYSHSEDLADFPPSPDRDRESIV", "experiment": "PatchXpress (PX) automated electrophysiology, human NaV1.5", "format": "cell-based"}, "wild-type NaV1.5": {"molecular_target": "wild-type NaV1.5 (Homo sapiens, UniProt Q14524)", "experiment": "IWQ chimera mapping, wild-type NaV1.5", "format": "cell-based", "set-up": "expressed in transfected cells; host or cells: BacMam transduced U2-OS cells", "conditions": "IWQ platform", "protocol": "as §1, §3, §4"}, "human NaV1.7": {"molecular_target": "human NaV1.7 (Homo sapiens, UniProt Q15858)", "experiment": "Manual whole cell patch clamp, human NaV1.7", "format": "cell-based"}, "[3]": {"molecular_target": "T2, native TTX-R NaV1.8 channels in mouse DRG neurons (Mus musculus, UniProt Q6QIY3)", "T2 construct": "endogenous in cells; host or cells: dissociated mouse DRG neurons", "experiment": "Manual whole cell patch clamp, native TTX-R NaV channels in mouse DRG neurons", "format": "cell-based", "conditions": "20% channel inactivation", "protocol": "as §1, §2"}, "[4]": {"system": "NaV1.7/NaV1.5 chimera DIIIS (third NaV1.7 voltage-sensor domain in NaV1.5 backbone)", "experiment": "IWQ chimera mapping, chimera DIIIS", "format": "cell-based, human", "conditions": "IWQ platform; BacMam transduced U2-OS cells", "protocol": "as §1, §3, §4"}, "[5]": {"system": "NaV1.7/NaV1.5 chimera DIVS (fourth NaV1.7 voltage-sensor domain in NaV1.5 backbone)", "experiment": "IWQ chimera mapping, chimera DIVS", "format": "cell-based, human", "conditions": "IWQ platform; BacMam transduced U2-OS cells", "protocol": "as §1, §3, §4"}, "human NaV1.8": {"molecular_target": "T3, human NaV1.8 (Homo sapiens, UniProt Q9Y5Y9)", "T3 construct": "expressed in transfected cells", "experiment": "Manual whole cell patch clamp, human NaV1.8", "format": "cell-based", "conditions": "20% channel inactivation", "protocol": "as §1, §2"}, "human NaV1.4 [6]": {"molecular_target": "T4, human NaV1.4 (Homo sapiens, UniProt P35499)", "T4 sequence (P35499 whole entry)": "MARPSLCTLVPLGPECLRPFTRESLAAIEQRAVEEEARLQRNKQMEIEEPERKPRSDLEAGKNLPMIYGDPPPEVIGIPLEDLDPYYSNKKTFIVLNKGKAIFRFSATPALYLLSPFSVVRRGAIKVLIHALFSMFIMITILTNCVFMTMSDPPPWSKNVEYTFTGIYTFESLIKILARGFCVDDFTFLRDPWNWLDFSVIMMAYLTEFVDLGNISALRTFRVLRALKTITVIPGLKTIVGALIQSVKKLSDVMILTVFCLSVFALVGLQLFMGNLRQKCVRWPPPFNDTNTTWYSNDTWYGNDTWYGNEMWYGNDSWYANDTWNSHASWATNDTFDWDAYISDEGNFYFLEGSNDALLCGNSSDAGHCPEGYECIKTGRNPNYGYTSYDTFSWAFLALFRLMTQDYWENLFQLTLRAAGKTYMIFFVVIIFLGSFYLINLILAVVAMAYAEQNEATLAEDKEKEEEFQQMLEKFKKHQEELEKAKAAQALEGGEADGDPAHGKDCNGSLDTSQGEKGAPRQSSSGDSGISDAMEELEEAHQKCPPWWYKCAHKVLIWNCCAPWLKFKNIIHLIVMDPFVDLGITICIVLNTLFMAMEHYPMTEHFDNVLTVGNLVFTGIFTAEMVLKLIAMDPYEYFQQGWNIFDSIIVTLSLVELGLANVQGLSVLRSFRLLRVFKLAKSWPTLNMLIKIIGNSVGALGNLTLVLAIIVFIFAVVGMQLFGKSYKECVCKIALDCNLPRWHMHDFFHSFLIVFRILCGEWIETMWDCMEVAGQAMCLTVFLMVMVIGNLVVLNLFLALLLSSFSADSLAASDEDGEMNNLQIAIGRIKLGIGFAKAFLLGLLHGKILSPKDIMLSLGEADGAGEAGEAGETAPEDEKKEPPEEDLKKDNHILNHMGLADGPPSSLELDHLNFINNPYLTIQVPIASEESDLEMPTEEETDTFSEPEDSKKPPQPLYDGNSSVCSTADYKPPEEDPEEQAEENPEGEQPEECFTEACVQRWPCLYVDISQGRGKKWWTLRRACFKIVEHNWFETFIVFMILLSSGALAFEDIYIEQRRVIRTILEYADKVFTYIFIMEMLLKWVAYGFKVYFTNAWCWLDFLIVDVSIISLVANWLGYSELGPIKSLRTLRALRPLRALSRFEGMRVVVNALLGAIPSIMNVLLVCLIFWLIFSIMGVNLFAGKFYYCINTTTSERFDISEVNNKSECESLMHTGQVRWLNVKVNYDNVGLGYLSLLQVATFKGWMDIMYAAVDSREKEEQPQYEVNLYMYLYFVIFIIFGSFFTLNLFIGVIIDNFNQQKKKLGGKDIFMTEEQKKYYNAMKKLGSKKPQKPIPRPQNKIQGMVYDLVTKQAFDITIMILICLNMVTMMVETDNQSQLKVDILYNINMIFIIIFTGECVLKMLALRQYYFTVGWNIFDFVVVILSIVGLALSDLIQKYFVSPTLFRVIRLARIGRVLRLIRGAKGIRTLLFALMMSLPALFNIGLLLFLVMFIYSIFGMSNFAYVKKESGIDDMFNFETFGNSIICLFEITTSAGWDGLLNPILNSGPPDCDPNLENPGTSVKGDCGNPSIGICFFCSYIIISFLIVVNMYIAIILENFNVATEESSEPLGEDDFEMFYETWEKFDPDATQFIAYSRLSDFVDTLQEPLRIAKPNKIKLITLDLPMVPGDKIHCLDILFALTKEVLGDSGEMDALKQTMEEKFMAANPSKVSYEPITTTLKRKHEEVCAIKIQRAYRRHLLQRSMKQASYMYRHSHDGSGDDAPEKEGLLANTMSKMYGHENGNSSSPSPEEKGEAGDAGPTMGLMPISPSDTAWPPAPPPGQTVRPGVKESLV", "experiment": "Manual whole cell patch clamp, human NaV1.4", "format": "cell-based", "conditions": "20% channel inactivation, n = 2–4 cells per data point", "protocol": "as §1, §2"}, "human NaV1.5 [7]": {"molecular_target": "T1, human NaV1.5", "experiment": "in vitro", "format": "cell-based", "protocol": "as §1, §2"}, "wild-type NaV1.7": {"molecular_target": "T5, wild-type NaV1.7 (Homo sapiens, UniProt Q15858)", "T5 construct": "expressed in transfected cells; host or cells: BacMam transduced U2-OS cells", "experiment": "IWQ chimera mapping, wild-type NaV1.7", "format": "cell-based", "conditions": "IWQ platform; mean ± SEM", "protocol": "as §1, §3, §4"}, "human NaV1.4 [8]": {"molecular_target": "T4, human NaV1.4", "experiment": "PatchXpress (PX) automated electrophysiology, human NaV1.4", "format": "cell-based", "protocol": "as §1"}, "[9]": {"conditions": "PX platform, at least ten cells, two to three data points per concentration"}},
  "data": [
    {"smiles": "C#CC[C@H](N)C(=O)N[C@@H](Cc1ccc(O)cc1)C(=O)N[C@H]1CSSC[C@@H]2NC(=O)[C@@H]3CSSC[C@@H](C(=O)N[C@@H](CCCNC(=N)N)C(=O)N[C@@H](CCCCN)C(=O)N[C@@H](CCC(=O)O)C(=O)N[C@H](C(N)=O)[C@@H](C)CC)NC(=O)[C@H](Cc4c[nH]c5ccccc45)NC(=O)[C@H](CC(C)C)NC(=O)[C@H](CCCCN)NC(=O)[C@H](CSSC[C@H](NC(=O)[C@H]([C@@H](C)O)NC(=O)[C@H](Cc4c[nH]c5ccccc45)NC(=O)[C@H](CCCC)NC(=O)[C@H](Cc4c[nH]c5ccccc45)NC(=O)[C@H](CCCCN)NC(=O)[C@H](CCC(N)=O)NC1=O)C(=O)N[C@@H](CC(=O)O)C(=O)N[C@@H](CO)C(=O)N[C@@H](CCCCN)C(=O)N[C@@H](CCCNC(=N)N)C(=O)N[C@@H](C)C(=O)N3)NC(=O)[C@H](CCCNC(=N)N)NC(=O)[C@H](CC(C)C)NC(=O)CNC(=O)[C@H](CCC(=O)O)NC2=O", "note": "[AM-8145, Pra-[Nle6;Glu28]JzTx-V(1–29)]", "values": [
      {"measurement": "IC50", "setting": "human NaV1.2", "value": 0.0435, "unit": "µM"},
      {"measurement": "IC50", "setting": "[1]", "value": "> 3", "unit": "µM"},
      {"measurement": "IC50", "setting": "human NaV1.5 [2]; [9]", "value": 3, "unit": "µM"},
      {"measurement": "selectivity ratio", "setting": "human NaV1.5 [2]; human, PX platform IC50 ratio, read-out: selectivity for NaV1.7 over NaV1.5", "value": 6000},
      {"measurement": "IC50", "setting": "wild-type NaV1.5", "value": "> 3", "unit": "µM"},
      {"measurement": "selectivity over human TTX-R channels (NaV1.5, NaV1.8) and native TTX-R channels in mouse DRG neurons", "setting": "human NaV1.7; manual patch clamp IC50 ratios", "value": "over 1,000 fold"},
      {"measurement": "selectivity over other human TTX-S Nav channels (NaV1.1, NaV1.2, NaV1.3, NaV1.4, NaV1.6)", "setting": "human NaV1.7; manual patch clamp IC50 ratios", "value": "30- to 120 fold"},
      {"measurement": "IC50", "setting": "human NaV1.7; manual patch clamp, voltage protocol with 20% of channels inactivated", "value": 0.00058, "unit": "µM"},
      {"measurement": "IC50", "setting": "[3]", "value": "> 1", "unit": "µM"},
      {"measurement": "IC50", "setting": "[4]", "value": "> 3", "unit": "µM"},
      {"measurement": "IC50", "setting": "[5]", "value": "> 3", "unit": "µM"},
      {"measurement": "IC50", "setting": "human NaV1.8", "value": "> 1", "unit": "µM"},
      {"measurement": "IC50", "setting": "human NaV1.4 [6]", "value": 0.071, "unit": "µM"},
      {"measurement": "selectivity ratio", "setting": "human NaV1.5 [7]; manual patch clamp IC50 ratio, read-out: fold-selectivity compared to NaV1.7, NaV1.5", "value": "> 1700"},
      {"measurement": "IC50", "setting": "human NaV1.5 [7]; manual patch clamp, 20% channel inactivation", "value": "> 1", "unit": "µM"},
      {"measurement": "IC50", "setting": "wild-type NaV1.7", "value": "0.05 ± 0.01", "unit": "µM"},
      {"measurement": "selectivity for NaV1.7 over NaV1.4", "setting": "human NaV1.4 [8]; PX platform IC50 ratio", "value": 300, "unit": "fold"},
      {"measurement": "IC50", "setting": "human NaV1.4 [8]; [9]", "value": 0.145, "unit": "µM"}
    ]}
  ]
}
